The text below walks through data of patent US8263610B2, “Substituted imidazolyl-5,6-dihydrobenzo[N]isoquinoline compounds” (ArQule, Inc., priority 2008, dated 2012).

Broadly, the IC50 is the concentration at which inhibition is half-maximal. High values mean a need for much substance, low ones inhibition by little substance. Broadly, the inhibition is the percentage by which the read-out fell short of the control. A low value points to a weak effect.

One assay has as its target T1, FGFR2(N549H) (Homo sapiens, UniProt P21802, N549H).
T1 construct: purchased Millipore 14-742
The assay can be described thus: fluorescent ELISA assay for inhibitors of FGFR2 kinase. The assay is classed as biochemical. Conditions: 37 μM Pyk2 substrate, 12.5 μM ATP, 0.5 μM FGFR2 enzyme, 60 minutes. The procedure:
The enzymatic assays described herein are conducted according to the following procedures from commercially available reagents. In one, non limiting, example, a fluorescent ELISA assay is used to identify and characterize inhibitors of FGFR2 kinase as described herein. This heterogeneous assay utilizes a biotinylated peptide with a tyrosine motif as a substrate and an anti-phospho-tyrosine antibody to measure phosphorylation of the substrate. The reaction is initiated by adding the test compound, 37 μM Pyk2 substrate (Midwest Biotech, Cat. #MBT2383), 12.5 μM ATP (Roche, Cat. #11 140 965 001) and 0.5 μM FGFR2 enzyme (Millipore, Cat. #14-742) sequentially to a non-binding polypropylene V-well plate. All reagents are in an assay buffer consisting of: 50 mM Tris-HCL, 0.02 mg/ml BSA, 10 mM MgCl2, 0.1 mM Na3VO4, 1 mM EGTA, 75 μM ATP, 0.01% NP-40, 2 mM DTT and 10% glycerol. The reaction is incubated for 60 minutes. As the reaction proceeds, FGFR2 phosphorylates tyrosines in the peptide. The reaction mixture is then moved to a blocked streptavidin-coated Nunc Maxisorb plate (coated with 100 ng streptavidin from Pierce (Cat. #15-124) per well), allowing for the capture of the biotinylated peptide. Peptides are captured for 30 minutes at room temperature, the phosphorylation of peptides continues during this phase. The reaction is stopped by washing the streptavidin-coated plate 6 times with TBST. Phosphorylated peptide is detected by adding anti-phospho-tyrosine antibody (Cell Signaling, Cat. #9411, diluted 1:3000) to the streptavidin-coated plate. Unbound anti-phospho-tyrosine antibody is removed by washing the streptavidin-coated plate 6 times with TBST. Secondary detection is performed using alkaline phosphatase tagged goat anti-mouse antibody (Pierce, Cat. #31320, diluted 1:4000) for one hour. Unbound secondary antibody is removed by washing the streptavidin-coated plate 6 times with TBST. The fluorescent readout is initiated by adding to the streptavidin-coated plate Promega Attophos substrate (Promega, Cat. #S1000, dilution=6 mg/10 ml), which, when dephosphorylated by alkaline phosphatase, emits a fluorescent signal of 595 nm in wavelength when excited by a signal of 400 nm in wavelength. The reading of the 595 nm signal is done on the Perkin Elmer Envision system. Compounds which prevent FGFR2 from phosphorylating the peptide result in a lower fluorescent signal. The 595 nm fluorescent signal is directly proportional to the activity of FGFR2. Thus, the inhibition of FGFR2 by compounds is monitored by the decrease in the 595 nm fluorescent signal.
For orientation: ELISA stands for enzyme-linked immunosorbent assay.

A further assay concerns DLD-1 cells. Briefly: MTS assay, inhibition of cell growth. Particulars: Homo sapiens, compound at 10 μM, 72 hours. The format is cell-based. The method, then: (§1) MDA-MB-231, DLD-1, Kato III NCI-H1299, PACA-2 cells, were maintained at 37° C., 5% CO2 in DMEM media supplemented with 10% fetal bovine serum, penicillin/streptomycin and fungizone (Invitrogen). Cells were seeded into 96-well tissue culture plates at 3000 per well and cultured at 37° C. for 18 hours. Test compounds were dissolved and diluted to 300× in DMSO then further diluted 1:40 in DMEM before addition to cells (1:7.5 dilution). Cells were incubated with test compounds for 72 hours followed by incubation with tetrazolium compound (3-(4,5-dimethylthiazol-2-yl)-5-(3-carboxymethoxyphenyl)-2-(4-sulfophenyl)-2H-tetrazolium, inner salt; MTS) and the electron coupling reagent, phenazine methosulfate (PMS) for 4 hours. […] The ability of compounds to inhibit cell growth in this assay is correlated with the reduction of dehydrogenase enzyme activity found in metabolically active cells. The measurement of the absorbance of the formazan was assessed using an ENVISION™ (Perkin Elmer) microplate reader at 492 nm.
(In general: Tetrazolium dyes change colour on reduction, which living cells bring about.)

The subject of another assay is Kato III cells. The assay can be described thus: MTS assay, inhibition of cell growth. Conditions: Homo sapiens, compound at 10 μM, 72 hours. The assay is classed as cell-based. The method, then:
as §1

Another assay relates to MDA-MB-231 cells. The assay can be described thus: MTS assay, inhibition of cell growth. The format is cell-based. Particulars: Homo sapiens, compound at 10 μM, 72 hours. The method, then: as §1
Another assay concerns NCI-H1299 cells. Briefly: MTS assay, inhibition of cell growth. The format is cell-based. Particulars: Homo sapiens, compound at 10 μM, 72 hours. The method, then: as §1
In another assay the test system is PACA-2 cells. The assay can be described thus: MTS assay, inhibition of cell growth. The format is cell-based. Conditions: compound at 10 μM, 72 hours. The method, then:
as §1

Bounds are passed on as bounds.

T1 sequence (P21802 22-821 N549H): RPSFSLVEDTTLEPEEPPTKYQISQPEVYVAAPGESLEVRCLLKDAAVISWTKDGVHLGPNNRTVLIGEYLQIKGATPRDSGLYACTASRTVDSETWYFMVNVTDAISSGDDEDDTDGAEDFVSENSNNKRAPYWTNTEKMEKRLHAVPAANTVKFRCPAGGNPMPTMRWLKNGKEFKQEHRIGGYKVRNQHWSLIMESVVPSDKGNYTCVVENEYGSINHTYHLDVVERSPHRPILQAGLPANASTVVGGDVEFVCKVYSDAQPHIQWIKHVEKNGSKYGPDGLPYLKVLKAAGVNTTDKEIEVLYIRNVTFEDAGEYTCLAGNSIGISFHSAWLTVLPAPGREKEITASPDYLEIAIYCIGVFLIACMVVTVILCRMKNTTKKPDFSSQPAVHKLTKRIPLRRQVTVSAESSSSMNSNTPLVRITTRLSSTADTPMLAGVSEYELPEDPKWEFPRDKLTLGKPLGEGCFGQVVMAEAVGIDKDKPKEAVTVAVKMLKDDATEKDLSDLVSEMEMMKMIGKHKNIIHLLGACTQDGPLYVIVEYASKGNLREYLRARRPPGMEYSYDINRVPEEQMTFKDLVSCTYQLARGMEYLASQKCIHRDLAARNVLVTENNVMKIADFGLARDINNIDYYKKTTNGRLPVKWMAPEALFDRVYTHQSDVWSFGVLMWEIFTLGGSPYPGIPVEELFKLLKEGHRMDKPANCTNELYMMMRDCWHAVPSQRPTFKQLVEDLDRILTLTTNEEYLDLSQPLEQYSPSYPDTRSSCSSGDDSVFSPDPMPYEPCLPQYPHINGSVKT

Turning to `Clc1ccc(C2Cc3cnc4[nH]ncc4c3-c3ccccc32)c(Cl)c1` (stereo not drawn) [7-(2,4-dichlorophenyl)-6,7-dihydro-3H-benzo[f]pyrazolo[3,4-c]isoquinoline], the concentration for half-maximal inhibition (IC50) on FGFR2(N549H) is 2510 nM.

As to `O=C(NCCc1cccc(Cl)c1)c1cccc(NC(=O)N2CCc3c(cnc4[nH]ncc34)C2)c1` [N-(3-{[2-(3-chlorophenyl)ethyl]carbamoyl}phenyl)-3,6,8,9-tetrahydro-7H-pyrazolo[3,4-c][2,7]naphthyridine-7-carboxamide], the inhibition at 10 µM was in the range of 75 to 100% in the assay on DLD-1 cells; 75 to 100% with Kato III cells; 75 to 100% in the assay on MDA-MB-231 cells; 25 to 49% in the assay with NCI-H1299 cells; 75 to 100% in the assay on PACA-2 cells.

For the molecule `c1nc2[nH]ncc2c2c1CCc1nc(NCC3CCCCCC3)ncc1-2` [N-(cycloheptylmethyl)-6,7-dihydro-3H-pyrazolo[4′,3′:5,6]pyrido[4,3-f]quinazolin-9-amine], the inhibition at 10 µM in the assay on DLD-1 cells, with Kato III cells, with MDA-MB-231 cells, in the assay with NCI-H1299 cells and in the assay on PACA-2 cells was 75 to 100% throughout.

`O=C(NCC1CCCCC1)N1CCc2c(cnc3[nH]ncc23)C1` [N-(cyclohexylmethyl)-3,6,8,9-tetrahydro-7H-pyrazolo[3,4-c][2,7]naphthyridine-7-carboxamide]: the inhibition at 10 µM in the assay with DLD-1 cells, in the assay on Kato III cells, with MDA-MB-231 cells, with NCI-H1299 cells and in the assay with PACA-2 cells was 75 to 100% throughout.

For the molecule `FC(F)(F)c1cccc(CNc2ncc3c(n2)CCc2cnc4[nH]ncc4c2-3)c1` [N-[3-(trifluoromethyl)benzyl]-6,7-dihydro-3H-pyrazolo[4′,3′:5,6]pyrido[4,3-f]quinazolin-9-amine], the inhibition at 10 µM in the assay on DLD-1 cells, in the assay on Kato III cells, with MDA-MB-231 cells, in the assay with NCI-H1299 cells and with PACA-2 cells was 75 to 100% in each case.

For the molecule `CN(C)c1ccc(NC(=O)N2CCc3c(cnc4[nH]ncc34)C2)cc1` [N-[4-(dimethylamino)phenyl]-3,6,8,9-tetrahydro-7H-pyrazolo[3,4-c][2,7]naphthyridine-7-carboxamide], the inhibition at 10 µM in the assay on DLD-1 cells, with Kato III cells, with MDA-MB-231 cells, in the assay with NCI-H1299 cells and with PACA-2 cells was 75 to 100% in each case.

As for `O=C(Nc1ccccc1)N1CCc2c(cnc3[nH]nc(-c4cccc(C(F)(F)F)c4)c23)C1` [N-phenyl-1-[3-(trifluoromethyl)phenyl]-3,6,8,9-tetrahydro-7H-pyrazolo[3,4-c][2,7]naphthyridine-7-carboxamide], the inhibition at 10 µM with DLD-1 cells, with Kato III cells, with MDA-MB-231 cells, with NCI-H1299 cells and with PACA-2 cells was 75 to 100% each time.

Take `CC(C)(C)NC1CCc2c(cnc3[nH]ncc23)C1` (stereo not drawn) [N-tert-butyl-6,7,8,9-tetrahydro-3H-pyrazolo[3,4-c]isoquinolin-7-amine]: the inhibition at 10 µM in the assay on DLD-1 cells, with Kato III cells, in the assay on MDA-MB-231 cells, in the assay on NCI-H1299 cells and in the assay with PACA-2 cells was 75 to 100% each time.

On to `O=C(NCCN1CCOCC1)c1cccc(NC(=O)N2CCc3c(cnc4[nH]ncc34)C2)c1` [N-{3-[(2-morpholin-4-ylethyl)carbamoyl]phenyl}-3,6,8,9-tetrahydro-7H-pyrazolo[3,4-c][2,7]napthyridine-7-carboxamide], for which the inhibition at 10 µM in the assay with DLD-1 cells, in the assay with Kato III cells, in the assay on MDA-MB-231 cells, in the assay with NCI-H1299 cells and with PACA-2 cells was 75 to 100% in each case.

For `Fc1ccc(C2Cc3cnc4[nH]ncc4c3-c3ccccc32)cc1` (stereo not drawn) [drawing 558, 7-(4-fluorophenyl)-6,7-dihydro-3H-benzo[f]pyrazolo[3,4-c]isoquinoline], the inhibition at 10 µM was 75 to 100% in the assay on DLD-1 cells; 50 to 74% in the assay with Kato III cells; 75 to 100% in the assay with MDA-MB-231 cells; 25 to 49% with NCI-H1299 cells; 75 to 100% in the assay on PACA-2 cells.

As for `O=S(=O)(NC1CCc2c(cnc3[nH]ncc23)C1)c1ccccc1` (stereo not drawn) [drawing 563, N-(6,7,8,9-tetrahydro-3H-pyrazolo[3,4-c]isoquinolin-7-yl)benzenesulfonamide], the inhibition at 10 µM with DLD-1 cells lay within 75 to 100%; in the assay with Kato III cells it was 75 to 100%; in the assay on MDA-MB-231 cells it was 75 to 100%; in the assay on NCI-H1299 cells, 25 to 49%; in the assay on PACA-2 cells it was 75 to 100%.

For `CC(C)(C)OC(=O)N1CCc2c(cnc3[nH]ncc23)C1` [drawing 579, tert-butyl 3,6,8,9-tetrahydro-7H-pyrazolo[3,4-c][2,7]naphthyridine-7-carboxylate], the inhibition at 10 µM in the assay on DLD-1 cells, in the assay on Kato III cells, in the assay with MDA-MB-231 cells, with NCI-H1299 cells and in the assay on PACA-2 cells was 75 to 100% throughout.

In the case of `Cc1nc(-c2cccc(NC(=O)N3CCc4c(cnc5[nH]nc(Br)c45)C3)c2)cs1` [drawing 580, 1-bromo-N-[3-(2-methyl-1,3-thiazol-4-yl)phenyl]-3,6,8,9-tetrahydro-7H-pyrazolo[3,4-c][2,7]naphthyridine-7-carboxamide], the inhibition at 10 µM in the assay on DLD-1 cells is 75 to 100%; in the assay on Kato III cells, 75 to 100%; with MDA-MB-231 cells it was < 24%; with NCI-H1299 cells, 50 to 74%; in the assay on PACA-2 cells, 25 to 49%.

`O=C(c1ccccc1)c1c[nH]c2ncnc(N3CCc4c(cnc5[nH]nc(Br)c45)C3)c12` [drawing 582]: the inhibition at 10 µM with DLD-1 cells was 50 to 74%; in the assay with Kato III cells, 75 to 100%; in the assay with MDA-MB-231 cells, 50 to 74%; with NCI-H1299 cells, 75 to 100%; in the assay on PACA-2 cells it was 75 to 100%.

For `CC(C)(C)OC(=O)N1CCc2c(cnc3[nH]nc(Br)c23)C1` [drawing 588, tert-butyl 1-bromo-3,6,8,9-tetrahydro-7H-pyrazolo[3,4-c][2,7]naphthyridine--7-carboxylate], the inhibition at 10 µM in the assay with DLD-1 cells, with Kato III cells, in the assay on MDA-MB-231 cells, in the assay on NCI-H1299 cells and with PACA-2 cells was 75 to 100% throughout.

For the molecule `CCOC(=O)CNC(=O)N1CCc2c(cnc3[nH]ncc23)C1` [ethyl N-(3,6,8,9-tetrahydro-7H-pyrazolo[3,4-c][2,7]naphthyridin-7-ylcarbonyl)glycinate], the inhibition at 10 µM with DLD-1 cells, with Kato III cells, in the assay on MDA-MB-231 cells, in the assay with NCI-H1299 cells and in the assay with PACA-2 cells was 75 to 100% in each case.

For the molecule `CC(C)(C)OC(=O)NCc1cccc(-c2n[nH]c3ncc4c(c23)CCN(C(=O)OC(C)(C)C)C4)c1` [tert-butyl 1-(3-{[(tert-butoxycarbonyl)amino]methyl}phenyl)-3,6,8,9-tetrahydro-7H-pyrazolo[3,4-c][2,7]naphthyridine--7-carboxylate], the inhibition at 10 µM in the assay with DLD-1 cells was in the range of 75 to 100%; in the assay on Kato III cells, 75 to 100%; in the assay with MDA-MB-231 cells, 75 to 100%; in the assay on NCI-H1299 cells, 50 to 74%; in the assay on PACA-2 cells it was 75 to 100%.
